“And” between values parts separate entries of the source, which are not always exact repeats. Equal entries are not always repeated.
Test: In vitro release
Assay type: physicochemical
Protocol: Pellets for release studies. Crystalline drug dimers were weighed on a stainless steel coupon. In the case of blends with a second drug, the dimer and drug were mixed at the desired mass ratio with mortar and pestle prior to weighing. Samples were transferred to a heat press (Carver Laboratory Press). A PTFE mold containing an array of 1 mm diameter holes of 1 mm depth was placed on top of the melt, and pressure was applied for 2 min. Molded pellets were cooled to room temperature and punched out of the mold, yielding a pellet of 1 mm height × 1 mm diameter.
Release studies were carried out using different media, including PBS (pH 7.4, Gibco), 100% FBS (Sigma, F1051), 1% FBS in PBS pH 7.4, and 3.6% BSA (Sigma, A7906) in PBS (pH 7.4, Gibco). […] Samples were incubated in release medium at 37 °C under constant agitation on an orbital shaker at 115 rpm (VWR). At designated timepoints, sampling was performed by complete removal of medium and replenishment with fresh buffer. Sampling timepoints included 24 h and then every 3–4 days thereafter. For PBS release conditions, samples were analyzed directly. For samples with protein (100% FBS, 1% FBS, 3.6% BSA), protein was precipitated by addition of acetonitrile. Samples were vortexed and centrifuged to separate extracted drug from precipitated protein. The supernatant was then analyzed for drug concentration by HPLC.

[1] = Fig 6a heterodimer pellet, 4 ml PBS, Day 1, samples and avg
[2] = Fig 6a heterodimer pellet, 4 ml PBS, Day 1, samples and avg, mean
[3] = Fig 6a heterodimer pellet, 4 ml PBS, Day 5, samples and avg
[4] = Fig 6a heterodimer pellet, 4 ml PBS, Day 5, samples and avg, mean
[5] = Fig 6a heterodimer pellet, 4 ml PBS, Day 7, samples and avg
[6] = Fig 6a heterodimer pellet, 4 ml PBS, Day 7, samples and avg, mean
[7] = Fig 6a heterodimer pellet, 4 ml PBS, Day 11, samples and avg
[8] = Fig 6a heterodimer pellet, 4 ml PBS, Day 11, samples and avg, mean
[9] = Fig 6a heterodimer pellet, 4 ml PBS, Day 14, samples and avg
[10] = Fig 6a heterodimer pellet, 4 ml PBS, Day 14, samples and avg, mean
[11] = Fig 6a heterodimer pellet, PBS, Day 1, avg
[12] = Fig 6a heterodimer pellet, PBS, Day 5, avg
[13] = Fig 6a heterodimer pellet, PBS, Day 7, avg
[14] = Fig 6a heterodimer pellet, PBS, Day 11, avg
[15] = Fig 6a heterodimer pellet, PBS, Day 14, avg

CC1CC2C3CCC4=CC(=O)C=CC4(C)C3(F)C(O)CC2(C)C1(O)C(=O)COC(=O)OCCCCCCOC(=O)OCC(=O)C1(O)C(C)CC2C3CCC4=CC(=O)C=CC4(C)C3(F)C(O)CC21C (stereo not drawn) [Dex-Hex-Dex]
Cumulative Dex Release (Fig 5g pellet 1x1 mm, 2 ml FBS, Day 3, samples and avg): 5606.66 ng and 6179.38 ng and 5887.12 ng | Cumulative Dex Release (Fig 5g pellet 1x1 mm, 2 ml FBS, Day 3, samples and avg, mean): 5891.06 ng | Cumulative Dex Release (Fig 5g pellet 1x1 mm, 2 ml FBS, Day 7, samples and avg (Dex-Hex-Dex)): 14987.41 ng and 15994.59 ng and 15970.98 ng | Cumulative Dex Release (Fig 5g pellet 1x1 mm, 2 ml FBS, Day 7, samples and avg (Dex-Hex-Dex), mean): 15650.99 ng | Cumulative Dex Release (Fig 5g pellet 1x1 mm, 2 ml FBS, Day 10, samples and avg): 21287.07 ng and 22357.19 ng and 22516.81 ng | Cumulative Dex Release (Fig 5g pellet 1x1 mm, 2 ml FBS, Day 10, samples and avg, mean): 22053.69 ng | Cumulative Dex Release (Fig 5g pellet 1x1 mm, 2 ml FBS, Day 14, samples and avg (Dex-Hex-Dex)): 32738.37 ng and 34997.20 ng and 34417.18 ng | Cumulative Dex Release (Fig 5g pellet 1x1 mm, 2 ml FBS, Day 14, samples and avg (Dex-Hex-Dex), mean): 34050.91 ng | Cumulative Dex Release (%) (Fig 5g pellet, FBS, Day 3, avg): 0.42% | Cumulative Dex Release (%) (Fig 5g pellet, FBS, Day 7, avg (Dex-Hex-Dex)): 1.13% | Cumulative Dex Release (%) (Fig 5g pellet, FBS, Day 10, avg): 1.59% | Cumulative Dex Release (%) (Fig 5g pellet, FBS, Day 14, avg (Dex-Hex-Dex)): 2.45%

CC1CC2C3CCC4=CC(=O)C=CC4(C)C3(F)C(O)CC2(C)C1(O)C(=O)COC(=O)OCCOCCOCCOC(=O)OCC(=O)C1(O)CCC2C3CCC4=CC(=O)CCC4(C)C3C(O)CC21C (stereo not drawn) [Dex-TEG-HC]
Cumulative Dex Release [1]: 81.55 ng and 74.59 ng and 99.31 ng | Cumulative HC Release [1]: 224.52 ng and 206.99 ng and 167.90 ng | Cumulative Dex Release [2]: 85.15 ng | Cumulative HC Release [2]: 199.80 ng | Cumulative Dex Release [3]: 2326.27 ng and 2325.49 ng and 1831.14 ng | Cumulative HC Release [3]: 2952.91 ng and 3019.31 ng and 2390.05 ng | Cumulative Dex Release [4]: 2160.97 ng | Cumulative HC Release [4]: 2787.43 ng | Cumulative Dex Release [5]: 3098.36 ng and 2980.56 ng and 2543.37 ng | Cumulative HC Release [5]: 4047.00 ng and 4113.39 ng and 3426.84 ng | Cumulative Dex Release [6]: 2874.10 ng | Cumulative HC Release [6]: 3862.41 ng | Cumulative Dex Release [7]: 4911.68 ng and 4696.17 ng and 4037.68 ng | Cumulative HC Release [7]: 6283.65 ng and 6328.14 ng and 5362.18 ng | Cumulative Dex Release [8]: 4548.51 ng | Cumulative HC Release [8]: 5991.32 ng | Cumulative Dex Release [9]: 6135.25 ng and 5788.05 ng and 5026.44 ng | Cumulative HC Release [9]: 7866.10 ng and 7754.88 ng and 6681.74 ng | Cumulative Dex Release [10]: 5649.91 ng | Cumulative HC Release [10]: 7434.24 ng | Cumulative Dex Release (%) [11]: 0.0441% | Cumulative HC Release (%) [11]: 0.11% | Cumulative Dex Release (%) [12]: 1.12% | Cumulative HC Release (%) [12]: 1.51% | Cumulative Dex Release (%) [13]: 1.49% | Cumulative HC Release (%) [13]: 2.09% | Cumulative Dex Release (%) [14]: 2.35% | Cumulative HC Release (%) [14]: 3.25% | Cumulative Dex Release (%) [15]: 2.92% | Cumulative HC Release (%) [15]: 4.03%

CC12CCC(=O)C=C1CCC1C2C(O)CC2(C)C1CCC2(O)C(=O)COC(=O)OCCOCCOCCOC(=O)OCC(=O)C1(O)CCC2C3CCC4=CC(=O)CCC4(C)C3C(O)CC21C (stereo not drawn) [HC-TEG-HC]
Cumulative HC Release (Fig 5c pellet 1x1 mm, 4 ml PBS, Day 1, samples and avg): 3582.46 ng and 3140.26 ng and 2450.67 ng | Cumulative HC Release (Fig 5c pellet 1x1 mm, 4 ml PBS, Day 1, samples and avg, mean): 3057.80 ng | Cumulative HC Release (Fig 5c pellet 1x1 mm, 4 ml PBS, Day 3, samples and avg): 8019.98 ng and 7816.75 ng and 5925.61 ng | Cumulative HC Release (Fig 5c pellet 1x1 mm, 4 ml PBS, Day 3, samples and avg, mean): 7254.11 ng | Cumulative HC Release (Fig 5c pellet 1x1 mm, 4 ml PBS, Day 7, samples and avg): 21489.19 ng and 20555.93 ng and 15454.82 ng | Cumulative HC Release (Fig 5c pellet 1x1 mm, 4 ml PBS, Day 7, samples and avg, mean): 19166.65 ng | Cumulative HC Release (Fig 5c pellet 1x1 mm, 4 ml PBS, Day 11, samples and avg): 36020.08 ng and 33028.17 ng and 24138.38 ng | Cumulative HC Release (Fig 5c pellet 1x1 mm, 4 ml PBS, Day 11, samples and avg, mean): 31062.21 ng | Cumulative HC Release (Fig 5c pellet 1x1 mm, 4 ml PBS, Day 14, samples and avg): 45741.74 ng and 40347.40 ng and 29842.17 ng | Cumulative HC Release (Fig 5c pellet 1x1 mm, 4 ml PBS, Day 14, samples and avg, mean): 38643.77 ng | Cumulative HC Release (%) (Fig 5c pellet, PBS, Day 1, avg): 0.51% | Cumulative HC Release (%) (Fig 5c pellet, PBS, Day 3, avg): 1.20% | Cumulative HC Release (%) (Fig 5c pellet, PBS, Day 7, avg): 3.17% | Cumulative HC Release (%) (Fig 5c pellet, PBS, Day 11, avg): 5.15% | Cumulative HC Release (%) (Fig 5c pellet, PBS, Day 14, avg): 6.40%
